Results from article PMC2955292 (Chemistry & biology, 2010).
Where “and” joins values, the source holds several entries; their conditions need not be identical. Equal entries are not always repeated. Entries after “also recorded” stand apart in the source; their conditions may differ. Positions of bridges follow the written chain, without caps; N, C: chain ends. Non-standard residues stand in square brackets, D forms with d. Residues, ends and D or L forms follow the SMILES beside them. *: point of attachment. Octatrienoyl(2E,4E,6E) = C/C=C/C=C/C=C/C(=O)*; Pro(4R-Me) = C[C@H]1CN[C@H](C(=O)O)C1; NMeA = CN[C@@H](C)C(=O)O

Experiments:
[1] = tested on: interaction between ClpP and ClpA; assay: ClpP-ClpA interaction; format: binding, Escherichia coli; settings: Figure S2
E. coli ClpP [2] = target: T1, E. coli ClpP (Escherichia coli, UniProt P0A6G7); settings: Figure S1A, SDS-PAGE
ClpPin [3] = assay: Negative stain EM, translocation of β-casein into ClpPin; format: biochemical, Escherichia coli
ClpP tetradecamer = assay: Sedimentation velocity, oligomeric state of ClpP; design: species or system Escherichia coli
ClpPin [4] = assay: Negative stain EM, translocation of EGFP-SsrA into ClpPin; format: biochemical, Escherichia coli; settings: ADEP1 vs no compound, Figure S3B
E. coli ClpP [5] = target: T1, E. coli ClpP
ClpP N-terminal loop = assay: Limited proteolysis of ClpP with Staphylococcus aureus protease V8; format: biochemical, Escherichia coli; settings: presence vs absence of ADEP1; cleavage at Glu8 and Glu14; Figure S6
ClpP = settings: in the presence of ADEP1; ref Brotz-Oesterhelt et al., 2005; cited from earlier work
E. coli ClpP [6] = target: T1, E. coli ClpP; assay: Peptidase assay, oxidized insulin B chain; format: biochemical; settings: 30-residue peptide; pH 8.0, 0.1 M KCl, 37 °C; Supplemental Table 1
E. coli ClpP [7] = target: T1, E. coli ClpP; assay: biochemical
E. coli ClpP [8] = target: T1, E. coli ClpP; assay: Crystal structure of ClpP-ADEP1 complex; format: binding

T1 sequence (P0A6G7 15-207): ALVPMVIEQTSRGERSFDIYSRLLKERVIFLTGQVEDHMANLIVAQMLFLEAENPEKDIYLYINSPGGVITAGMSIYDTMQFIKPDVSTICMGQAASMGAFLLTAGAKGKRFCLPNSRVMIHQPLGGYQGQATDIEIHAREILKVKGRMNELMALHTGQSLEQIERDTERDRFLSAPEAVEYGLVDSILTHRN

C/C=C/C=C/C=C/C(=O)N[C@@H](Cc1ccccc1)C(=O)N[C@H]1COC(=O)[C@@H]2C[C@@H](C)CN2C(=O)[C@H](C)NC(=O)[C@H](C)N(C)C(=O)[C@@H]2CCCN2C1=O [ADEP1] ({Octatrienoyl(2E,4E,6E)}-FSP[NMeA]A[Pro(4R-Me)]; ester 2-C; N-terminus assumed)
interaction between ClpP and ClpA [1]: blocked interaction between ClpP and ClpA
degradation of β-casein compared with ClpA and ATP (E. coli ClpP [2]; 37 °C): comparable to that observed when ClpA and ATP were present
pattern of β-casein degradation products (processivity) (E. coli ClpP [2]): generated numerous partially degraded products
stain penetration into ClpPin without β-casein (ClpPin [3]; ADEP1 alone, absence of β-casein, data not shown): did not prevent stain penetration into the ClpPin chamber
shift of particle intensity distribution, β-casein translocation (ClpPin [3]; ClpPin, ADEP1 vs no compound, Figure S3A): significant shift of particles to higher intensity values
effect on ClpP tetradecamer formation (ClpP tetradecamer): enhances rather than disrupts tetradecamer formation
shift of particle intensity distribution, EGFP-SsrA (ClpPin [4]): no significant differences
activation of F-V cleavage compared with ClpA (E. coli ClpP [5]; F-V 1 mM, ClpP 1 μg/ml, 10 μM ADEP1 vs ClpA 10 μg/ml with 1 mM ATPγS, 37 °C, pH 8.0): comparable to the allosteric activation seen with ClpA
activity of ClpP alone relative to activity with ADEP1 present (E. coli ClpP [5]; F-V cleavage, 10 μM ADEP1, average of two separate experiments): ~ 2%
limited proteolysis of ClpP by V8 protease (ClpP N-terminal loop): significantly slower
degradation of EGFP-SsrA by ClpP (ClpP): not degraded
cleavage of oxidized insulin β chain (E. coli ClpP [6]): activated cleavage
EC50 (E. coli ClpP [7]): 0.37 µM
conformation of N-terminal loops on ADEP1 binding (E. coli ClpP [8]): locks the N-terminal loops in an open β-hairpin conformation
rigid-body movement of ClpP monomer on ADEP1 binding (E. coli ClpP [8]): 1.5-2 Å
widening of interface between adjacent ClpP monomers (E. coli ClpP [8]): about 1 Å
axial pore diameter of ClpP bound to ADEP1 (E. coli ClpP [8]; 1.9 Å, PDB 3MT6, apo 12 Å or less): ~ 20 Å and 20 Å
binding site and contacts of ADEP1 on ClpP (E. coli ClpP [8]; Figure 5B): binds in the hydrophobic groove that serves as the primary docking site for ClpP ATPases; also recorded: binds to a hydrophobic pocket on the outer edge of the apical surface of ClpP; also recorded: Tyr62 forms hydrogen bonds with both the phenylalanine and the alanine moieties of the compound; also recorded: the phenylalanine, β-methylproline and alanine moieties, as well as the aliphatic tail in ADEP1 are critical for binding, while the N-methylalanine and proline moieties have minimal interactions with the protein
stoichiometry of ADEP1 binding (E. coli ClpP [8]; heptameric ring): one molecule of ADEP1 to each one of the seven hydrophobic clefts in the heptameric ring
